Assay results published in paper PMC11012124, “Synthesis of Novel Triazine-Based Chalcones and 8,9-dihydro-7H-pyrimido[4,5-b][1,4]diazepines as Potential Leads in the Search of Anticancer, Antibacterial and Antifungal Agents” (International Journal of Molecular Sciences, 2024).
≈ marks a conversion by molar mass, not a printed value.

Assays:
[1] = test system: A. fumigatus (ATCC 26934); test: Antifungal broth microdilution (CLSI); format: cell-based; conditions: ATCC26934; Afu: Aspergillus fumigatus
Method in brief: (§1)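 Broth microdilution followed CLSI M27-A3 for yeasts and the filamentous-fungi reference method, in 200 μL final volume with DMSO-matched growth controls. Plates were incubated in the dark and humid at 30 °C for a time suited to each fungus; testing was done in triplicate.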

[2] = test system: Trichophyton rubrum (CCC 134-2000); test: Antifungal broth microdilution (CLSI); format: cell-based; conditions: Tr: Trichophyton rubrum
Method in brief: as §1

[3] = test system: Candida albicans (ATCC 10231); test: Antifungal broth microdilution (CLSI); format: cell-based; conditions: ATCC10231; Ca: Candida albicans
Method in brief: as §1

[4] = test system: Microsporum gypseum (CCC 115); test: Antifungal broth microdilution (CLSI); format: cell-based; conditions: Nannizzia gypsea; Mg: Microsporum gypseum
Method in brief: as §1

[5] = test system: Cryptococcus neoformans (ATCC 32264); test: Antifungal broth microdilution (CLSI); format: cell-based; conditions: ATCC32264; Cn: Cryptococcus neoformans
Method in brief: as §1

[6] = test system: A. niger (ATCC 9029); test: Antifungal broth microdilution (CLSI); format: cell-based; conditions: ATCC9029; Ani: Aspergillus niger
Method in brief: as §1

[7] = test system: Galleria mellonella; test: Toxicity in the Galleria mellonella model; conditions: G. mellonella larvae, at the higher doses
Description: G mellonella larvae were cultivated in the laboratory and healthy, beige larvae weighing 150–200 mg, were selected for toxicity assays.

[8] = test system: human red blood cells (huRBC); test: Hemolytic activity, spectrophotometric; format: cell-based; conditions: 200 μg/mL, 24 h, 37 °C
[9] = test system: CCRF-CEM; conditions: 48 h
[10] = test system: MOLT-4; conditions: MOLT-4, 48 h
[11] = test system: K-562; conditions: K-562, 48 h
[12] = test system: SR; conditions: 48 h
[13] = test system: U251; conditions: U251, 48 h
[14] = test system: LOX IMVI; conditions: 48 h; for GI50: LOX IMVI
[15] = test system: S. aureus ATCC 43300; test: Antibacterial MIC, microdilution; format: cell-based; conditions: Staphylococcus aureus; S. aureus ATCC 43300 (MRSA)
[16] = test system: SF-539; conditions: human, 48 h

SMILES | MIC [1] [µg/mL] | MIC [2] [µg/mL] | MIC [3] [µg/mL] | MIC [4] [µg/mL] | MIC [5] [µg/mL] | MIC [6] [µg/mL] | further results
COc1ccc(/C=C/C(=O)c2ccc(S(=O)(=O)NCCNc3nc(Nc4ccc(F)cc4)nc(N(C)C)n3)cc2)cc1 [24c] | > 250 | 125 (≈ 211 µM) | > 250 | > 250 | > 250 | > 250 | –
CN(C)c1nc(NCCNS(=O)(=O)c2ccc(C(=O)/C=C/c3ccc(Cl)cc3)cc2)nc(N2CCOCC2)n1 [23e] | > 250 | 125 (≈ 218 µM) | 250 (≈ 437 µM) | > 250 | 250 (≈ 437 µM) | > 250 | –
CN(C)c1nc(NCCNS(=O)(=O)c2ccc(C3=Nc4c(N)nc(N)nc4NC(c4ccc(C(F)(F)F)cc4)C3)cc2)nc(N2CCOCC2)n1 (stereo not drawn) [30g] | > 250 | 250 (≈ 344 µM) | 125 (≈ 172 µM) | > 250 | 125 (≈ 172 µM) | > 250 | mortality [7]: ≤ 25%
Cc1ccc(C2CC(c3ccc(Nc4nc(NCCO)nc(Nc5ccc(Cl)cc5)n4)cc3)=Nc3c(N)nc(N)nc3N2)cc1 (stereo not drawn) [33b] | – | – | – | – | – | – | % Hemolysis [8]: 100%
Nc1nc(N)c2c(n1)NC(c1ccc(F)cc1)CC(c1ccc(Nc3nc(NCCO)nc(Nc4ccc(Cl)cc4)n3)cc1)=N2 (stereo not drawn) [33f] | – | – | – | – | – | – | GI50 [9]: 750 nM; GI50 [10]: 530 nM; GI50 [11]: 490 nM; GI50 [12]: 670 nM
COc1cc(/C=C/C(=O)c2ccccc2)ccc1Oc1nc(Nc2ccc(F)cc2)nc(N(C)C)n1 [21a] | – | – | – | – | – | – | mortality [7]: ≤ 25%
CN(C)c1nc(NCCNS(=O)(=O)c2ccc(C(=O)/C=C/c3ccc(Cl)cc3)cc2)nc(Nc2ccc(F)cc2)n1 [24e] | > 250 | > 250 | > 250 | > 250 | > 250 | > 250 | –
COc1cc(/C=C/C(=O)c2cc(OC)c(OC)c(OC)c2)ccc1Oc1nc(Nc2ccc(F)cc2)nc(N(C)C)n1 [21d] | > 250 | 125 (≈ 217 µM) | > 250 | > 250 | > 250 | 125 (≈ 217 µM) | GI50 [10]: 470 nM; GI50 [13]: 500 nM; GI50 [14]: 480 nM; mortality [7]: ≤ 25%
Nc1nc(N)c2c(n1)NC(c1ccc(C(F)(F)F)cc1)CC(c1ccc(Nc3nc(NCCO)nc(Nc4ccc(Cl)cc4)n3)cc1)=N2 (stereo not drawn) [33g] | – | – | – | – | – | – | GI50 [10]: 890 nM; GI50 [11]: 640 nM; MIC [15]: 31.2 µg/mL (≈ 46.2 µM)
COc1cc(/C=C/C(=O)c2ccc(S(=O)(=O)NCCNc3nc(Nc4ccc(F)cc4)nc(N(C)C)n3)cc2)cc(OC)c1OC [24d] | – | – | – | – | – | – | CC50 [16]: 5620 nM; CC50 ([14]; human): 5930 nM
CN(C)c1nc(NCCNS(=O)(=O)c2ccc(C3=Nc4c(N)nc(N)nc4NC(c4ccc(C(F)(F)F)cc4)C3)cc2)nc(Nc2ccc(F)cc2)n1 (stereo not drawn) [31g] | 62.5 (≈ 83.1 µM) | 250 (≈ 333 µM) | > 250 | > 250 | > 250 | > 250 | –
COc1cc(C2CC(c3ccc(Cl)cc3)=Nc3c(N)nc(N)nc3N2)ccc1Oc1nc(Nc2ccc(F)cc2)nc(N(C)C)n1 (stereo not drawn) [29e] | > 250 | 62.5 (≈ 97.3 µM) | > 250 | > 250 | > 250 | > 250 | –
COc1cc(/C=C/C(=O)c2cc(OC)c(OC)c(OC)c2)ccc1Oc1nc(NCCO)nc(N2CCOCC2)n1 [20d] | – | – | – | – | – | – | GI50 [14]: 640 nM; GI50 [12]: 780 nM
